In publication PMC8582472, “Investigation of Novel Small Molecular TRPM4 Inhibitors in Colorectal Cancer Cells” (Cancers, 2021):

Target: TRPM4 (Homo sapiens, UniProt Q8TD43)
Experiment: whole-cell patch clamp of endogenous TRPM4 currents in HCT116 cells
Format: cell-based

Chain of TRPM4 (Q8TD43 whole entry): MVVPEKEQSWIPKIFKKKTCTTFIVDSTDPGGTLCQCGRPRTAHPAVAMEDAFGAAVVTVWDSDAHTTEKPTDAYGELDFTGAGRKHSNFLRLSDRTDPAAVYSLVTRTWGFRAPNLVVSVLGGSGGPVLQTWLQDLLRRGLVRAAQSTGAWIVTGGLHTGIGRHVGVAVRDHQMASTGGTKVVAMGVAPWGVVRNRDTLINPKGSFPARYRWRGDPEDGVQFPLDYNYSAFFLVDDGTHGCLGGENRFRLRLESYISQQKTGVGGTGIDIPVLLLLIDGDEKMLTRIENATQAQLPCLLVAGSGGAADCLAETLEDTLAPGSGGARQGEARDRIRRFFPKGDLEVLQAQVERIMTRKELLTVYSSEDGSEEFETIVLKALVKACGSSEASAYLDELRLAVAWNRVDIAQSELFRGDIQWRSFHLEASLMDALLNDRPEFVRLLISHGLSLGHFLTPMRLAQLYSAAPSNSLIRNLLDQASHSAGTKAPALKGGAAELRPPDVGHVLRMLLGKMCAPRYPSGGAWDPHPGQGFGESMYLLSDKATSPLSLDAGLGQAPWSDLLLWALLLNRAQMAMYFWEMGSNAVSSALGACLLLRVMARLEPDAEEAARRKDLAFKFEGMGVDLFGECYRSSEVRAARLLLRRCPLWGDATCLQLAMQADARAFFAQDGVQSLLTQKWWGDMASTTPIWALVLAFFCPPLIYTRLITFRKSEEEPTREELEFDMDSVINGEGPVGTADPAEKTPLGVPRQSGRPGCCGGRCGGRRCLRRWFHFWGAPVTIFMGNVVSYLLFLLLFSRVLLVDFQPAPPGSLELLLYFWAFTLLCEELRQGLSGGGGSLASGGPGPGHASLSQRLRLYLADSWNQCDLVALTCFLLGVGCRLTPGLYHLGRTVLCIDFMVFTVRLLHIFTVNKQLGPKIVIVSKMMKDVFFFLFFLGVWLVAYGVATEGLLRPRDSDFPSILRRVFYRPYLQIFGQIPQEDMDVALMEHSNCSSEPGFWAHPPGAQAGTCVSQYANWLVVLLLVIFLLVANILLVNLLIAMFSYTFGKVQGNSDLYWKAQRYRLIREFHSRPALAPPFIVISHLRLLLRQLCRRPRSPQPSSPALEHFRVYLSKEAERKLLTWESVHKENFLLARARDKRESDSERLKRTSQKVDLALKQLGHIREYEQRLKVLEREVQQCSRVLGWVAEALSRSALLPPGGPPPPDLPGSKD

`Cc1cc(Cl)ccc1OC(C)C(=O)Nc1cc(Cl)ccc1C(=O)O` (stereo not shown) [LBA, 4-chloro-2-(2-(4-chloro-2-methylphenoxy)propanamido) benzoic acid] was tested, and the IC50 was 1840 nM.
